Bridge positions count the residues as written; N and C are the ends. Peptide text beside a SMILES is read from it.
Target: α-chymotrypsin (Bos taurus, UniProt P00766)
Assay: Chymotrypsin inhibitory activity of peptides (AAPFpNA hydrolysis; IC50, Ki, residual activity)
Assay type: biochemical
Details: for Ki: Ki=IC50/(1+S/Km), Km 0.38 mM; for IC50: chymotrypsin 30 nM, AAPFpNA 0.5 mM
Protocol: The inhibition constants of various synthetic active peptide inhibitors (molecular scaffolds) against seine proteases were measured. The substrates N-succinyl-Ala-Ala-Pro-Phe-p-nitroaniline (AAPFpNA), Nα—Benzoyl-L-arginine-4-nitroaniline hydrochloride (BApNA) and N-succinyl-[…] (AAApNA) are used in competitive binding reaction to determine the inhibitory activities against α-chymotrypsin, bovine trypsin, and porcine pancreatic elastase, respectively. Experiments for α-chymotrypsin and bovine trypsin inhibition were measured in 20 mM CaCl2, 50 mM Tris-HCl buffer (pH 7.8), and that for porcine elastase inhibition was measured in 50 mM Tris-HCl buffer (pH 8.0). The concentration of the peptide was measured using optical density (OD) at 280 nm. The Michaelis constant (Km) of the enzyme hydrolysis substrate is calculated from the initial rate of substrate hydrolysis at 405 nm. The absorbance value of the substrate was measured at 405 nm after complete hydrolysis. All data were processed using nonlinear regression.
• (1) Added a total 190 μL of reaction buffer (20 mM CaCl2, 50 mM Tris-HCl (pH 7.8)) into the 96 well plate, followed by preheating at 37° C. for 15 min. Then added 2 μL of different concentrations of substrates (p-Nitroanilide, pNA, 0.5% in DMSO), and mixed by centrifugation at 500 rpm for 1 min. Finally, the plate was incubated at 37° C. for 20 min, and the absorbance value at 405 nm was measured. In the 200 μL of reaction system, the final concentrations of pNA were 0, 0.025, 0.05, 0.075, 0.1, 0.125, 0.15, 0.25, and 0.3 mM, respectively. Make three repetitions for each concentration and plot the OD405 m value with pNA concentration to obtain the standard curve. • (2) Added a total 190 μL of reaction buffer (20 mM CaCl2, 50 mM Tris-HCl (pH 7.8)) and 8 μL of 0.75 μM chymotrypsin into the 96 well plate, followed by preheating at 37° C. for 5 min. Then added 2 μL of different concentrations of substrates (AAPFpNA, dissolved in DMSO), and mixed by centrifugation at 500 rpm for 1 min. Finally, the plate was incubated at 37° C. for 20 min, and the absorbance value at 405 nm was measured. In the 200 μL of reaction system, the final concentrations of AAPFpNA were 0, 0.125, 0.25, 0.285, 0.33, 0.4, and 0.5 mM, respectively. Make three repetitions for each concentration and plot the OD405 nm value with time to obtain the corresponding curve. Divide the slope of the curve by the slope of the standard curve and the enzyme concentration to obtain the initial velocity V0 (mM/(min*mM protein). Plot the initial velocity V0 with the concentration of substrate AAPFpNA using Prism software, and the Michaelis constant Km value of chymotrypsin hydrolyzing AAPFpNA was obtained.
• (1) Added a total 190 μL of reaction buffer (20 mM CaCl2, 50 mM Tris-HCl (pH 7.8)), different concentrations of anti-chymorypsin peptides (CHs) into the pre-cold 96 well plate, followed by preheating at 37° C. for 5 min and centrifugated at 500 rpm for 1 min and allowed to stand for 4 minutes. Then added 8 μL of 750 nM chymotrypsin and incubated at 37° C. for 10 min, and centrifugated at 500 rpm for 1 min and allowed to stand for 9 minutes. Finally, added 2 μL of 50 mM AAPFpNA, and mixed by centrifugation at 500 rpm for 1 min. The plate was incubated at 37° C. for 90 min, and the absorbance value at 405 nm was measured. Three repetitions were made, and only reaction buffer and substrate were added in the blank control as the minimum absorption value (Min OD405 nm); Only reaction buffer, enzyme and substrate were added in the negative control as the maximum absorption value (Max OD405). • (2) In the 200 μL of reaction system, the final concentrations of chymotrypsin and AAPFpNA were 30 nM and 0.5 mM, respectively. • (3) Data statistics
Residual activity of enzyme (%)=(1−(Max OD405 nm−Sample OD405 nm)/(Max OD405 nm−Min OD405 nm))*100 […]

Row | SMILES | Ki | IC50 | inhibitory activity against chymotrypsin (in words) | Residual activity of chymotrypsin (peptide 1000 μM) | Residual activity of chymotrypsin (peptide 0.01 μM) | Residual activity of chymotrypsin (peptide 0.1 μM) | Residual activity of chymotrypsin (peptide 1 μM) | Residual activity of chymotrypsin (peptide 100 μM) | Residual activity of chymotrypsin (peptide 300 μM) | also measured
1 | CC[C@H](C)[C@@H]1NC(=O)[C@H](CO)NC(=O)[C@H](Cc2ccc(O)cc2)NC(=O)[C@H]([C@@H](C)O)NC(=O)[C@H](C)NC(=O)[C@H](CO)NC(=O)CNC(=O)[C@@H](N)CSSC[C@@H](C(=O)N[C@@H](Cc2ccc(O)cc2)C(=O)NCC(=O)O)NC(=O)[C@H](CCC(N)=O)NC(=O)[C@@H]2CCCN2C(=O)[C@@H]2CCCN2C1=O [CH15] (H-CGSATYSIPPQCYG-OH; disulfide 1-12; N-terminus and C-terminus assumed) | 1.99 µM | 4.6 µM | – | – | – | – | – | – | – | –
2 | CC[C@H](C)[C@@H]1NC(=O)[C@H](CO)NC(=O)[C@H](Cc2ccc(O)cc2)NC(=O)[C@H]([C@@H](C)O)NC(=O)[C@@H](NC(=O)[C@@H](N)Cc2ccccc2)CSSC[C@@H](C(=O)N[C@@H](CCCNC(=N)N)C(=O)O)NC(=O)[C@H](CCC(N)=O)NC(=O)[C@@H]2CCCN2C(=O)[C@@H]2CCCN2C1=O [CH35] (H-FCTYSIPPQCR-OH; disulfide 2-10; C-terminus assumed) | – | – | good inhibitory activity | 0.9 ± 0.1% | – | – | – | – | – | –
3 | CC[C@H](C)[C@@H]1NC(=O)[C@@H]2CCCN2C(=O)[C@@H]2CCCN2C(=O)[C@H]([C@@H](C)CC)NC(=O)[C@H](CO)NC(=O)[C@H](Cc2ccccc2)NC(=O)[C@H]([C@@H](C)O)NC(=O)[C@H](C)NC(=O)[C@H]([C@@H](C)O)NC(=O)CNC(=O)[C@@H](N)CSSC[C@@H](C(=O)N[C@@H](CC(N)=O)C(=O)O)NC1=O [CH27] (H-CGTATFSIPPICN-OH; disulfide 1-12; N-terminus and C-terminus assumed) | 2.88 µM | 6.66 µM | certain inhibitory activity | 0.7 ± 0.1% | 102.7 ± 2.4% | 105.3 ± 0.9% | 106.0 ± 0.7% | 2.9 ± 0.3% | 1.2 ± 0.0% | Residual activity of chymotrypsin (peptide 3 μM): 86.8 ± 1.5%; Residual activity of chymotrypsin (peptide 6 μM): 64.9 ± 3.1%; Residual activity of chymotrypsin (peptide 10 μM): 26.2 ± 2.4%; Residual activity of chymotrypsin (peptide 25 μM): 15.5 ± 0.3%
4 | CC[C@H](C)[C@@H]1NC(=O)[C@H](CO)NC(=O)[C@H](Cc2ccc(O)cc2)NC(=O)[C@H]([C@@H](C)O)NC(=O)[C@@H](NC(=O)[C@@H](N)Cc2ccccc2)CSSC[C@@H](C(=O)N[C@@H](Cc2ccc(O)cc2)C(=O)O)NC(=O)[C@H](CCC(N)=O)NC(=O)[C@@H]2CCCN2C(=O)[C@@H]2CCCN2C1=O [CH33] (H-FCTYSIPPQCY-OH; disulfide 2-10; C-terminus assumed) | – | – | good inhibitory activity | – | – | – | – | – | – | –
5 | CC[C@H](C)[C@@H]1NC(=O)[C@H](CO)NC(=O)[C@H](Cc2ccc(O)cc2)NC(=O)[C@H]([C@@H](C)O)NC(=O)[C@H](C)NC(=O)[C@H](C)NC(=O)CNC(=O)CNC(=O)[C@@H](N)CSSC[C@@H](C(=O)N[C@@H](Cc2ccccc2)C(=O)O)NC(=O)[C@H](CCCCN)NC(=O)[C@H](C)NC(=O)[C@@H]2CCCN2C1=O [CH32] (H-CGGAATYSIPAKCF-OH; disulfide 1-13; N-terminus and C-terminus assumed) | 2.76 µM | 6.38 µM | certain inhibitory activity | – | 99.5 ± 0.1% | 100.2 ± 1.9% | 99.0 ± 2.0% | 2.2 ± 0.2% | 0.7 ± 0.1% | Residual activity of chymotrypsin (peptide 4 μM): 90.1 ± 6.1%; Residual activity of chymotrypsin (peptide 6 μM): 49.2 ± 2.7%; Residual activity of chymotrypsin (peptide 8 μM): 40.8 ± 6.0%; Residual activity of chymotrypsin (peptide 25 μM): 14.4 ± 1.1%
6 | CC[C@H](C)[C@@H]1NC(=O)[C@H](CO)NC(=O)[C@H](Cc2ccccc2)NC(=O)[C@H](C)NC(=O)[C@H](CC(C)C)NC(=O)[C@@H](N)CSSC[C@@H](C(=O)N[C@@H](Cc2ccc(O)cc2)C(=O)NCC(=O)O)NC(=O)[C@H](CCC(N)=O)NC(=O)[C@@H]2CCCN2C(=O)[C@@H]2CCCN2C1=O [CH2] (H-CLAFSIPPQCYG-OH; disulfide 1-10; N-terminus and C-terminus assumed) | – | > 50 µM | – | – | – | – | – | – | – | –
7 | CC[C@H](C)[C@@H]1NC(=O)[C@@H]2CCCN2C(=O)[C@@H]2CCCN2C(=O)[C@H]([C@@H](C)CC)NC(=O)[C@H](CO)NC(=O)[C@H](Cc2ccccc2)NC(=O)[C@H]([C@@H](C)O)NC(=O)[C@@H](NC(=O)[C@@H](NC(=O)CN)[C@@H](C)O)CSSC[C@@H](C(=O)N[C@@H](CC(N)=O)C(=O)O)NC1=O [CH26] (H-GTCTFSIPPICN-OH; disulfide 3-11; C-terminus assumed) | – | – | good inhibitory activity | – | – | – | – | – | – | –
8 | CC[C@H](C)[C@@H]1NC(=O)[C@H](CO)NC(=O)[C@H](Cc2ccccc2)NC(=O)[C@H]([C@@H](C)O)NC(=O)[C@@H](NC(=O)[C@@H](N)CC(C)C)CSSC[C@@H](C(=O)N[C@@H](Cc2ccc(O)cc2)C(=O)NCC(=O)O)NC(=O)[C@H](CCC(N)=O)NC(=O)[C@@H]2CCCN2C(=O)[C@@H]2CCCN2C1=O [CH1] (H-LCTFSIPPQCYG-OH; disulfide 2-10; N-terminus and C-terminus assumed) | 0.46 µM | 1.07 µM | – | 0.5 ± 0.1% | 104.8 ± 7.2% | 93.6 ± 5.5% | 55.0 ± 3.3% | 1.2 ± 0.1% | 0.3 ± 0.1% | Residual activity of chymotrypsin (peptide 0.001 μM): 103.5 ± 1.6%; Residual activity of chymotrypsin (peptide 3 μM): 26.4 ± 1.1%; Residual activity of chymotrypsin (peptide 10 μM): 10.6 ± 0.2%
9 | CC[C@H](C)[C@@H]1NC(=O)[C@H](CO)NC(=O)[C@H](Cc2ccccc2)NC(=O)[C@H](C)NC(=O)[C@H](CC(C)C)NC(=O)CNC(=O)[C@@H](N)CSSC[C@@H](C(=O)N[C@@H](Cc2ccc(O)cc2)C(=O)NCC(=O)O)NC(=O)[C@H](CCC(N)=O)NC(=O)[C@@H]2CCCN2C(=O)[C@@H]2CCCN2C1=O [CH3] (H-CGLAFSIPPQCYG-OH; disulfide 1-11; N-terminus and C-terminus assumed) | – | > 50 µM | – | – | – | – | – | – | – | –
10 | CC[C@H](C)[C@@H]1NC(=O)[C@H](CO)NC(=O)[C@H](CC(C)C)NC(=O)[C@H]([C@@H](C)O)NC(=O)[C@@H](NC(=O)[C@@H](N)Cc2ccccc2)CSSC[C@@H](C(=O)N[C@@H](Cc2ccc(O)cc2)C(=O)NCC(=O)O)NC(=O)[C@H](CCC(N)=O)NC(=O)[C@@H]2CCCN2C(=O)[C@@H]2CCCN2C1=O [CH19] (H-FCTLSIPPQCYG-OH; disulfide 2-10; N-terminus and C-terminus assumed) | 4.87 µM | 11.3 µM | – | – | – | – | – | – | – | –

— US20230416329A1, “A PEPTIDE WITH DISULFIDE BONDS AND INHIBITORY ACTIVITY AGAINST SERINE PROTEASES, DERIVED HYBRID PEPTIDES THEREOF, AND USES THEREOF” (INSTITUTE OF MATERIA MEDICA , CHINESE ACADEMY OF MEDICAL …, priority 2020, published 2023)
